Data reported in ChEMBL document CHEMBL1681705, “Optimisation of ITK inhibitors through successive iterative design cycles” (Bioorg Med Chem Lett, 2011).

Columns and labels:
[1] = target: Cyclin-dependent kinase 5/CDK5 activator 1 (Homo sapiens) (UniProt Q00535+Q15078); experiment: Inhibition of CDK5/p35 at 0.1 uM; values are per cent of control
[2] = target: Angiopoietin-1 receptor (Homo sapiens) (UniProt Q02763); experiment: Inhibition of Tie2 at 0.1 uM; values are per cent of control
[3] = target: Cyclin-dependent kinase 7/ cyclin H (Homo sapiens) (UniProt P51946+P50613); experiment: Inhibition of CDK7/cyclin H/MAT1 at 0.1 uM; values are per cent of control
[4] = target: Ribosomal protein S6 kinase alpha-4 (Homo sapiens) (UniProt O75676); experiment: Inhibition of MSK2 at 0.1 uM; values are per cent of control
Ribosomal protein S6 kinase alpha-4 (Homo sapiens), sequence (O75676 whole entry, looked up): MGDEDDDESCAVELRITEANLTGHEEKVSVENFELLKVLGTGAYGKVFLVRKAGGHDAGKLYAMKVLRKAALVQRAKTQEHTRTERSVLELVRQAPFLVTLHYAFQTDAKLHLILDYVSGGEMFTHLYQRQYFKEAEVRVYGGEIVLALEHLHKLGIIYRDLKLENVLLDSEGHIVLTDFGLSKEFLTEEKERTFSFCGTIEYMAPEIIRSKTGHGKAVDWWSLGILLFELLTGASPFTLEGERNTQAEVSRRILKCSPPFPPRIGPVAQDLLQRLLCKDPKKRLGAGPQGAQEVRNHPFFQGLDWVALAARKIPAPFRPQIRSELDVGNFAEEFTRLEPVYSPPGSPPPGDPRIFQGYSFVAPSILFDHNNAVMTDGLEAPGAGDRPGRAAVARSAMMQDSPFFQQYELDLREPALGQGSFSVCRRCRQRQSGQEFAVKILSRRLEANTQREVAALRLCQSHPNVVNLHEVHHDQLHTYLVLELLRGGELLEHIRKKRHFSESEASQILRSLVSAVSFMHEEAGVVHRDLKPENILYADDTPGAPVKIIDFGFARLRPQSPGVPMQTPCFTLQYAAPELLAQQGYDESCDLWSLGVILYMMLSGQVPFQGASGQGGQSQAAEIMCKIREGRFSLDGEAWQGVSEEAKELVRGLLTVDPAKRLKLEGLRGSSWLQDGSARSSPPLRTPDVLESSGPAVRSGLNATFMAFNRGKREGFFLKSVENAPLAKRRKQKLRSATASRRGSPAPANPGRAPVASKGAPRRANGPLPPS

[5] = target: Calcium/calmodulin-dependent protein kinase type 1 (Homo sapiens) (UniProt Q14012); experiment: Inhibition of CaMK1 at 1 uM; values are per cent of control
Calcium/calmodulin-dependent protein kinase type 1 (Homo sapiens), sequence (Q14012 whole entry, looked up): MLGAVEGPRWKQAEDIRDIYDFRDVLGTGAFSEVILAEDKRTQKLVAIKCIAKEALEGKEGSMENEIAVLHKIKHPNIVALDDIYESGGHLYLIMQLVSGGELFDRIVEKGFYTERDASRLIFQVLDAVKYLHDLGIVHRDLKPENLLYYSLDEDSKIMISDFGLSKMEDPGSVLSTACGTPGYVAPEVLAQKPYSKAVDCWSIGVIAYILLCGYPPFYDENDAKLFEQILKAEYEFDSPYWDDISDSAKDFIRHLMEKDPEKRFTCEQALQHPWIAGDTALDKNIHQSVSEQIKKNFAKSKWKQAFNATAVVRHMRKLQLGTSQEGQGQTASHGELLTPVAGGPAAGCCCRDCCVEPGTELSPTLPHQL

[6] = target: T1, Serine/threonine-protein kinase TBK1 (Homo sapiens) (UniProt Q9UHD2); experiment: Inhibition of TBK1 at 0.1 uM; values are per cent of control
T1 sequence (whole entry): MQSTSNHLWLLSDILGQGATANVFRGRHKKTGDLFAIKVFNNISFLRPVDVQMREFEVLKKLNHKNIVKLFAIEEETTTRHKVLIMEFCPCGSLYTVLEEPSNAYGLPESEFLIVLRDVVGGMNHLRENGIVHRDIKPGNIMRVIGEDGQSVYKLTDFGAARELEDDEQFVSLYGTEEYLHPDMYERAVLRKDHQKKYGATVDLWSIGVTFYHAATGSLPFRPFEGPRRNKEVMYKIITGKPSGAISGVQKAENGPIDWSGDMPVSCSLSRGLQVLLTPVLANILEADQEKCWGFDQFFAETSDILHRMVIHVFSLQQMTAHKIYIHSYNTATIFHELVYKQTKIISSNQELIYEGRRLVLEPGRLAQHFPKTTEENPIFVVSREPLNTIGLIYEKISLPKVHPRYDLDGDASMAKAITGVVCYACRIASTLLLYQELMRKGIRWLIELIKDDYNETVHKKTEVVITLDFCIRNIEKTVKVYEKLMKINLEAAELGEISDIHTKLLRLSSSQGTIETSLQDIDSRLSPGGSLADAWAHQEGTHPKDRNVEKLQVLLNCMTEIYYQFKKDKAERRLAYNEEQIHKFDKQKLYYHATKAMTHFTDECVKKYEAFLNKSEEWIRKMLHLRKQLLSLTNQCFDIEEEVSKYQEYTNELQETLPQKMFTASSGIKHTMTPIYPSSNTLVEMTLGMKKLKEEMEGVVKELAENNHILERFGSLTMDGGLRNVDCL

[7] = target: Fibroblast growth factor receptor 1 (Homo sapiens) (UniProt P11362); experiment: Inhibition of FGFR1 at 1 uM; values are per cent of control
Fibroblast growth factor receptor 1 (Homo sapiens), sequence (P11362 22-822 limits assumed): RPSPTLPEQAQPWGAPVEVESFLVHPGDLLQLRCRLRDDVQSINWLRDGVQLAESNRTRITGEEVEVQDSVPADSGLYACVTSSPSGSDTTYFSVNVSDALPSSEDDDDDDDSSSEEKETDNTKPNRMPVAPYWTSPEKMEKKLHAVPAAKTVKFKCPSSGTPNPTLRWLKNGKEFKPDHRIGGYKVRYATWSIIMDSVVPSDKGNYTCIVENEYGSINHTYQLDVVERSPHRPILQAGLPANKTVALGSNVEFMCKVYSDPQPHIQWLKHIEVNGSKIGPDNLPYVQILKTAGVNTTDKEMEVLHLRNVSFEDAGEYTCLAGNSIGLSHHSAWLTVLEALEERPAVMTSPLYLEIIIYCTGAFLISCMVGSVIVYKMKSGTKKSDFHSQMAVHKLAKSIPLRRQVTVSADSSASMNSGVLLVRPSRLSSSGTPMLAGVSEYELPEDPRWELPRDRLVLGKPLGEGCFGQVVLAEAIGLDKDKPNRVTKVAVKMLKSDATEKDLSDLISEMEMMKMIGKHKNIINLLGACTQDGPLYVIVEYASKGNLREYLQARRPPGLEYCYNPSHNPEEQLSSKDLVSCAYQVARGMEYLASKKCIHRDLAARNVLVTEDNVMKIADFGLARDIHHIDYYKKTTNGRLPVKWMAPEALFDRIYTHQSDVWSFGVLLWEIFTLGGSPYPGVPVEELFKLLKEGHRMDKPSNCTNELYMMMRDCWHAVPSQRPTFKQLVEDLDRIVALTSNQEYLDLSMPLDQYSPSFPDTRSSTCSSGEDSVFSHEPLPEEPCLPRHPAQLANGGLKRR

[8] = target: T2, Ephrin type-B receptor 1 (Homo sapiens) (UniProt P54762); experiment: Inhibition of EphB1 at 1 uM; values are per cent of control
T2 sequence (whole entry): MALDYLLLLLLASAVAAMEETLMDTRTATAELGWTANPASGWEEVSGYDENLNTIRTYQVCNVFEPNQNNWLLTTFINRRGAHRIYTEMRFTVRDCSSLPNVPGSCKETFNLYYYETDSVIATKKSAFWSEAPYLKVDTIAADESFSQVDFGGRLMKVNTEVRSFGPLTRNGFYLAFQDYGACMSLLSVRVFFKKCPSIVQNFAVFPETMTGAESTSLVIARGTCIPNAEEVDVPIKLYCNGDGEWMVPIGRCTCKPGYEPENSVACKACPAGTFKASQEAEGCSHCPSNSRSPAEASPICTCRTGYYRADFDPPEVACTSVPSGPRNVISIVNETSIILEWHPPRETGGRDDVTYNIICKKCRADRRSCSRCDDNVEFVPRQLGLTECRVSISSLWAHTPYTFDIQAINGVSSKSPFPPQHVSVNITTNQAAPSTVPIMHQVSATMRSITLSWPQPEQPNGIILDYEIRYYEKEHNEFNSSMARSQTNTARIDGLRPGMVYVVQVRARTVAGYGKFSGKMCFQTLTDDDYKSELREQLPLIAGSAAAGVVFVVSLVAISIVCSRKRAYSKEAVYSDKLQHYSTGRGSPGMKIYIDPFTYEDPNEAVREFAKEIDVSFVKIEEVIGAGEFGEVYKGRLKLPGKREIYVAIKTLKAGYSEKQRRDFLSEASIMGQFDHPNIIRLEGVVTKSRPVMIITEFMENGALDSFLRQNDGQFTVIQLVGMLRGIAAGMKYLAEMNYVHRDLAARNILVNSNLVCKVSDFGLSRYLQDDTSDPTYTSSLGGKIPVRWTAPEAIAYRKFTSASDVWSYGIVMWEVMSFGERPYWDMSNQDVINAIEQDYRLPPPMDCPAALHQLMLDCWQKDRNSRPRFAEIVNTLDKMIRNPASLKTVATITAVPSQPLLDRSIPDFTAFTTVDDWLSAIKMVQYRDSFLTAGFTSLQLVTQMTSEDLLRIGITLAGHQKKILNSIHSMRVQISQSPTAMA

[9] = target: Tyrosine-protein kinase ABL1 (Homo sapiens) (UniProt P00519); experiment: Inhibition of Abl at 1 uM; values are per cent of control
Tyrosine-protein kinase ABL1 (Homo sapiens), sequence (P00519 whole entry): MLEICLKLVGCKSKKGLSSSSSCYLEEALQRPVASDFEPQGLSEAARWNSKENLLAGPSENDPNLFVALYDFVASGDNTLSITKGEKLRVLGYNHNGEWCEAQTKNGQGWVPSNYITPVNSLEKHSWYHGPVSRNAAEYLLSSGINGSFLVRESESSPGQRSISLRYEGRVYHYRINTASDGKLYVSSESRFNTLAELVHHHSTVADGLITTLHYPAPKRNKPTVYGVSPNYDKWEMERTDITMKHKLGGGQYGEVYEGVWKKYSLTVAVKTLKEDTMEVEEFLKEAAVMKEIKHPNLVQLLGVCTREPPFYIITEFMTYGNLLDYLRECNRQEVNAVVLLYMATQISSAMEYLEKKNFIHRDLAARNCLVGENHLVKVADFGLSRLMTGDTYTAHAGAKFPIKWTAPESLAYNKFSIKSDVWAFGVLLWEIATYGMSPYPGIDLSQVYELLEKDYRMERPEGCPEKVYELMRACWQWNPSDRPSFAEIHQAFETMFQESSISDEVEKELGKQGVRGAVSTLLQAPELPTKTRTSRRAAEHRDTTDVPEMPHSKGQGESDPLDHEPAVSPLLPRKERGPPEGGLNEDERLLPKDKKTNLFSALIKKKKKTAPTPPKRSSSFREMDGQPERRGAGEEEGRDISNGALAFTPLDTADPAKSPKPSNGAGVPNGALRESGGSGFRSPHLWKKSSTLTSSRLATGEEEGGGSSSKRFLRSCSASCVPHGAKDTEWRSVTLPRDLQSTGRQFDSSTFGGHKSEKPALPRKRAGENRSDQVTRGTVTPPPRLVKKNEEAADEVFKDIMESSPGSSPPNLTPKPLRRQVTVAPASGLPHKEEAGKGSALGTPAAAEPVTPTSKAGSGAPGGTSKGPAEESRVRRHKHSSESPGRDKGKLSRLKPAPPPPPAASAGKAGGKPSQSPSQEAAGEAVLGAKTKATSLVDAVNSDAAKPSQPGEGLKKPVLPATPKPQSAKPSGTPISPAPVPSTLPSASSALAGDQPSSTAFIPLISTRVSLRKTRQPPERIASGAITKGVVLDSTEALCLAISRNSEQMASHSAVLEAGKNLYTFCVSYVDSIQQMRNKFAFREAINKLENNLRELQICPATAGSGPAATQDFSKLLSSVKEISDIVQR

[10] = target: T3, Tyrosine-protein kinase ZAP-70 (Homo sapiens) (UniProt P43403); experiment: Inhibition of ZAP70 at 1 uM; values are per cent of control
T3 sequence (whole entry): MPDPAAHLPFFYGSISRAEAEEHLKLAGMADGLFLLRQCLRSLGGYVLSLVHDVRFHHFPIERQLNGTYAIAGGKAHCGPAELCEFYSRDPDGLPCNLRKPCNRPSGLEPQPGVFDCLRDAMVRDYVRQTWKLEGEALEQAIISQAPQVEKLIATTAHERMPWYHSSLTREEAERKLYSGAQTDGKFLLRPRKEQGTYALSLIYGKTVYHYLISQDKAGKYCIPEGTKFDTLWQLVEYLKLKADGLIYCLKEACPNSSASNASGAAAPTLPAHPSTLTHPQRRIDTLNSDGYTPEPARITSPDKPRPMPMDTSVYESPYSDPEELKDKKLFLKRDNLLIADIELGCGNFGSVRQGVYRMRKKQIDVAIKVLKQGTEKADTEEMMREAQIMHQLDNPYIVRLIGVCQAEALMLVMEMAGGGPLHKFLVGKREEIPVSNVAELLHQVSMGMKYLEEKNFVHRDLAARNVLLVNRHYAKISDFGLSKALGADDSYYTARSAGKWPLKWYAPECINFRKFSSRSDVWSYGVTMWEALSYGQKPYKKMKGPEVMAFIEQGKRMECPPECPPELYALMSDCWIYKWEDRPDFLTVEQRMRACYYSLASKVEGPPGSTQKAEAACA

Cyclin-dependent kinase 5/CDK5 activator 1 (Homo sapiens), sequence (Q00535 whole entry): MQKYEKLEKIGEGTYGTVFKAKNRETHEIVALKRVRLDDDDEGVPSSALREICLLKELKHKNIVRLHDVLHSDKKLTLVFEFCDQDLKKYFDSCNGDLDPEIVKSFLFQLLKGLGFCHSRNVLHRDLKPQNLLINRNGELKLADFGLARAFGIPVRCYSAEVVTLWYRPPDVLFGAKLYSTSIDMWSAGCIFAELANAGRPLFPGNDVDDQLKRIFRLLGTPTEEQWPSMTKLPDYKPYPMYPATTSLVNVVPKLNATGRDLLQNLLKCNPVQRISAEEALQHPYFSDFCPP
Cyclin-dependent kinase 5/CDK5 activator 1 (Homo sapiens), sequence (Q15078 99-307 partner limits assumed): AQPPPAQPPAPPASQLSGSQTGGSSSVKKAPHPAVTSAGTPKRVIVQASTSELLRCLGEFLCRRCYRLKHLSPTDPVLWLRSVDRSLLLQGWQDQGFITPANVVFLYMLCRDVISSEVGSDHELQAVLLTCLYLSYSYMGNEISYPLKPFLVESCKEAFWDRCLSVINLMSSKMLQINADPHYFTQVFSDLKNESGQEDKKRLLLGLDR
Angiopoietin-1 receptor (Homo sapiens), sequence (Q02763 whole entry): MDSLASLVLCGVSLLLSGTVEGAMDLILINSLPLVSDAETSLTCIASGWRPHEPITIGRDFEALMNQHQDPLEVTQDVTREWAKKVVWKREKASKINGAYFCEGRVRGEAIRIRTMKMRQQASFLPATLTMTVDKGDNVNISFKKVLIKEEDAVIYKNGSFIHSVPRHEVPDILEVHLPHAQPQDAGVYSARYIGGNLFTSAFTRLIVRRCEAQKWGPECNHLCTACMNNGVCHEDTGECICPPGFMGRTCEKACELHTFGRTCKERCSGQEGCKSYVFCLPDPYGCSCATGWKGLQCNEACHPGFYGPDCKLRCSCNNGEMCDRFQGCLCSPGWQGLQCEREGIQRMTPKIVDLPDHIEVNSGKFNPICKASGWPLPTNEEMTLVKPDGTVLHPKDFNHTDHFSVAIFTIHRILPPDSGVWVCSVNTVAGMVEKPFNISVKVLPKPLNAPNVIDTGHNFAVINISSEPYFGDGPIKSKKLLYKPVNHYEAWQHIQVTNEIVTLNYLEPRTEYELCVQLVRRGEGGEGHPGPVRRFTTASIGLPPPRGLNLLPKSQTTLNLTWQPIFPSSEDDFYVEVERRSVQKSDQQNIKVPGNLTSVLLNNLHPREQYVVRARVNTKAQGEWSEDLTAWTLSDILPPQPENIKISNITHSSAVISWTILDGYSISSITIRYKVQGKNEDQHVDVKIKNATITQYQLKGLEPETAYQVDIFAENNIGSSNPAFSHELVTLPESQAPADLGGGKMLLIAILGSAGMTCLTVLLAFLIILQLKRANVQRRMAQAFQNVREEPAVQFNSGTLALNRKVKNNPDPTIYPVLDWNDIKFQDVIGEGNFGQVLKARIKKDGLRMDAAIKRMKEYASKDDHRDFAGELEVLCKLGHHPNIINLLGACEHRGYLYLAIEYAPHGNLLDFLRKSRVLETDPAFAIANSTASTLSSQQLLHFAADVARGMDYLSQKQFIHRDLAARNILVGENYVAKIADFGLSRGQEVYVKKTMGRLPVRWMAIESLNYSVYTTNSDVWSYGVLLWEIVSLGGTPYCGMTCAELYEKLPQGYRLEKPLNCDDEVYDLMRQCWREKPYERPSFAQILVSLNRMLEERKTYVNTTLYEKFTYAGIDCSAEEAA

Compound | residual activity [1] [%] | residual activity [2] [%] | residual activity [3] [%] | residual activity [4] [%] | residual activity [5] [%] | residual activity [6] [%] | residual activity [7] [%] | residual activity [8] [%] | residual activity [9] [%] | residual activity [10] [%]
Cc1ccc2cc(-c3n[nH]c4ccc(NC5CCN(Cc6ccccc6)CC5)cc34)[nH]c2c1 | 20 | 83 | 94 | 106 | 78 | 53 | -2 | 12 | 0 | 75
Cc1ccc2cc(-c3n[nH]c4ccc(NC5CCNC5)cc34)[nH]c2c1 (stereo not given) | 19 | 17 | 42 | 39 | 24 | 19 | 0 | 5 | 0 | 35
